Test results as given in patent publication US11339161B2, “Triazolo pyridines as modulators of gamma-secretase” (Boehringer Ingelheim International GmbH, priority 2017, dated 2022).
Read-outs that look alike come from different tables or passages of the source.

Key:
LYN B = LYN B (Homo sapiens, UniProt P07948); test: Z'-LYTE SelectScreen biochemical kinase assay LYN B
From the text: Thermo Fisher Scientific SelectScreen™ Biochemical Kinase Profiling Service Z′-LYTE™ Screening Protocol and Assay Conditions Assay Theory
The […] biochemical assay employs a fluorescence-based, coupled-enzyme format and is based on the differential sensitivity of phosphorylated and non-phosphorylated peptides to proteolytic cleavage. The peptide substrate is labeled with two fluorophores—one at each end—that make up a FRET pair. In the primary reaction, the kinase transfers the gamma-phosphate of ATP to a single tyrosine, serine or threonine residue in a synthetic FRET-peptide. In the secondary reaction, a site-specific protease recognizes and cleaves non-phosphorylated FRET-peptides. Phosphorylation of FRET-peptides suppresses cleavage by the Development Reagent. Cleavage disrupts FRET between the donor (i.e., coumarin) and acceptor (i.e., fluorescein) fluorophores on the FRET-peptide, whereas uncleaved, phosphorylated FRET-peptides maintain FRET. A ratiometric method, which calculates the ratio (Emission Ratio=Coumarin emission (445 nm)/Fluorescein emission (520 nm)) of donor emission to acceptor emission after excitation of the donor fluorophore at 400 nm, is used to quantitate reaction progress, as shown in the equation below. A significant benefit of this ratiometric method for quantitating reaction progress is the elimination of well-to-well variations in FRET-peptide concentration and signal intensities. As a result, the assay yields very high Z′-factor values (>0.7) at a low percent phosphorylation. Both cleaved and uncleaved FRET-peptides contribute to the fluorescence signals and therefore to the Emission Ratio. The extent of phosphorylation of the FRET-peptide can be calculated from the Emission Ratio. The Emission Ratio will remain low if the FRET-peptide is phosphorylated (i.e., no kinase inhibition) and will be high if the FRET-peptide is non-phosphorylated (i.e., kinase inhibition).
The Test Compounds are screened in 1% DMSO (final) in the well. For 10 point titrations, 3-fold serial dilutions are conducted from the starting concentration of the customer's choosing.
All Peptide/Kinase Mixtures are diluted to a 2× working concentration in the appropriate Kinase Buffer (see section Kinase Specific Assay Conditions for a complete description).
All ATP Solutions are diluted to a 4× working concentration in Kinase Buffer (50 mM HEPES pH 7.5, 0.01% BRIJ-35, 10 mM MgCl2, 1 mM EGTA). ATP Km apparent is previously determined using a Z″-LYTE assay.
The Development Reagent is diluted in Development Buffer (see section Kinase-Specific Assay Conditions—Direct and Cascade for a complete description).
Bar-coded Corning, low volume NBS, black 384-well plate (Corning Cat. #4514) • 1. 100 nL—100× Test Compound in 100% DMSO • 2. 2.4 μL—Kinase buffer • 3. 5 μL—2× Peptide/Kinase Mixture • 4. 2.5 μL—4×ATP Solution • 5. 30—second plate shake • 6. 60—minute Kinase Reaction incubation at room temperature • 7. 5 μL—Development Reagent Solution • 8. 30—second plate shake • 9. 60—minute Development Reaction incubation at room temperature • 10. Read on fluorescence plate reader and analyze the data Z′-LYTE Assay Controls
SelectScreen Kinase Profiling Service uses XLfit from IDBS. The dose response curve is curve fit to model number 205 (sigmoidal dose-response model).
The 2×LYN B/Tyr 02 mixture is prepared in 50 mM HEPES pH 7.5, 0.01% BRIJ-35, 10 mM MgCl2, 1 mM EGTA. The final 10 μL Kinase Reaction consists of 0.85-14.8 ng LYN B and 2 μM Tyr 02 in 50 mM HEPES pH 7.5, 0.01% BRIJ-35, 10 mM MgCl2, 1 mM EGTA. After the 1 hour Kinase Reaction incubation, 5 μL of a 1:128 dilution of Development Reagent A is added.

[1] = system: 15 kinases (ABL1, AURKA, CDK5/p35, CSF1R, FGFR1, FGFR2, FLT4, KDR, LYN B, MAP4K2, MAP4K4, PDGFRA, PTK2, RET, RPS6KB1); test: Z'-LYTE SelectScreen biochemical kinase panel: count of kinases inhibited over all 15 kinases tested; details: 10 μmolar compound concentration; [ATP] Km app; out of 15 kinases tested
panel of 15 kinases = test: Z'-LYTE SelectScreen kinase panel: number of kinases with <40% inhibition; assay type: biochemical; details: of 15 kinases tested; 10 μmolar compound; ATP at Km app
[2] = 10 μmolar compound concentration, ATP at Km app, read-out: LYN B inhibition
[3] = read-out: % Inhibition mean LYN B

Chain of LYN B (P07948 1-491 isoform P07948-2): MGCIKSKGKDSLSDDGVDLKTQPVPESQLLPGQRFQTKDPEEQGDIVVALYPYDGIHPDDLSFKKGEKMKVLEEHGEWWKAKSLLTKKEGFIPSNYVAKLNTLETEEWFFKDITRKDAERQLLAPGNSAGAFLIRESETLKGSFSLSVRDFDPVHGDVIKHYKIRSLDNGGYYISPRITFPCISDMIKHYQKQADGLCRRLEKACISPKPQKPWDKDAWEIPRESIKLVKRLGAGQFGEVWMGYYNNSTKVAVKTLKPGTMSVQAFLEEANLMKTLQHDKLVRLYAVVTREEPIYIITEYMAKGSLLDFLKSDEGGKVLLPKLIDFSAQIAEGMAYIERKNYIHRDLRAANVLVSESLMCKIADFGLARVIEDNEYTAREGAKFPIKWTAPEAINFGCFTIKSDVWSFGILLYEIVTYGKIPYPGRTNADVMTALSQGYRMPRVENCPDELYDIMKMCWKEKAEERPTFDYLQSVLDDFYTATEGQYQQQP

CC1(C)NC(=O)c2ccc(Nc3nc4c(-c5cccc(F)c5)cccn4n3)cc21 [Cpd. 302 in WO09155551, reference compound]
inhibition at 10 µM (LYN B; [2]): > 80%
inhibition at 10 µM (LYN B; read-out: % Inhibition mean): 97%
No. of kinases with >80% inhibition [1]: 15/15

CCn1ncc2c1CCC(Nc1nc3c(-c4cccnc4OC)cccn3n1)C2 (stereo not drawn) [Example 69, (1-Ethyl-4,5,6,7-tetrahydro-1H-indazol-5-yl)-[8-(2-methoxy-pyridin-3-yl)-[1,2,4]triazolo[1,5-a]pyridine-2-yl]-amine]
inhibition at 10 µM (LYN B; [2]): < 40%
inhibition at 10 µM (LYN B; [3]): 15%
No. of kinases with <40% inhibition (panel of 15 kinases): 15/15

CC1(C)C(=O)Nc2ccc(Nc3nc4c(-c5cccc(F)c5)cccn4n3)cc21 [Cpd. 263 in WO09155551, reference compound]
inhibition at 10 µM (LYN B; [2]): > 80%
inhibition at 10 µM (LYN B; read-out: % Inhibition mean): 98%
No. of kinases with >80% inhibition [1]: 15/15

CCn1ncc2c1CCC(Nc1nc3c(-c4cnccc4OC)cccn3n1)C2 (stereo not drawn) [Example 68, (1-Ethyl-4,5,6,7-tetrahydro-1H-indazol-5-yl)-[8-(4-methoxy-pyridin-3-yl)-[1,2,4]triazolo[1,5-a]pyridine-2-yl]-amine]
inhibition at 10 µM (LYN B; [2]): < 40%
inhibition at 10 µM (LYN B; [3]): 22%
No. of kinases with <40% inhibition (panel of 15 kinases): 11/15

Fc1cccc(-c2cccn3nc(Nc4ccc5[nH]cnc5c4)nc23)c1 [Cpd. 293 in WO09155551, reference compound]
inhibition at 10 µM (LYN B; [2]): > 80%
inhibition at 10 µM (LYN B; read-out: % Inhibition mean): 89%
No. of kinases with >80% inhibition [1]: 15/15

CCn1ncc2c1CCC(Nc1nc3c(-c4cccnc4)cccn3n1)C2 (stereo not drawn) [Example 63, (1-Ethyl-4,5,6,7-tetrahydro-1H-indazol-5-yl)-(8-pyridin-3-yl-[1,2,4]triazolo[1,5-a]pyridine-2-yl)-amine]
inhibition at 10 µM (LYN B; [2]): < 40%
inhibition at 10 µM (LYN B; [3]): 13%
No. of kinases with <40% inhibition (panel of 15 kinases): 12/15

CCn1ncc2c1CCC(Nc1nc3c(-c4cccc(Cl)c4)cccn3n1)C2 (stereo not drawn) [Example 59, [8-(3-Chloro-phenyl)-[1,2,4]triazolo[1,5-a]pyridine-2-yl]-(1-ethyl-4,5,6,7-tetrahydro-1H-indazol-5-yl)-amine]
inhibition at 10 µM (LYN B; [2]): < 40%
inhibition at 10 µM (LYN B; [3]): 22%
No. of kinases with <40% inhibition (panel of 15 kinases): 13/15

CCn1ncc2c1CCC(Nc1nc3c(-c4ccc(OC)nc4)cccn3n1)C2 (stereo not drawn) [Example 71, (1-Ethyl-4,5,6,7-tetrahydro-1H-indazol-5-yl)-[8-(6-methoxy-pyridin-3-yl)-[1,2,4]triazolo[1,5-a]pyridine-2-yl]-amine]
inhibition at 10 µM (LYN B; [2]): < 40%
inhibition at 10 µM (LYN B; [3]): 24%
No. of kinases with <40% inhibition (panel of 15 kinases): 11/15

CCn1ncc2c1CC[C@@H](Nc1nc3c(-c4ccc(F)c(Cl)c4)cccn3n1)C2 [Example R-61, (R)-[8-(3-Chloro-4-fluoro-phenyl)-[1,2,4]triazolo[1,5-a]pyridine-2-yl]-(1-ethyl-4,5,6,7-tetrahydro-1H-indazol-5-yl)-amine]
inhibition at 10 µM (LYN B; [2]): < 40%
inhibition at 10 µM (LYN B; [3]): 17%
No. of kinases with <40% inhibition (panel of 15 kinases): 15/15

CCn1ncc2c1CCC(Nc1nc3c(-c4ccc(C)nc4)cccn3n1)C2 (stereo not drawn) [Example 67, (1-Ethyl-4,5,6,7-tetrahydro-1H-indazol-5-yl)-[8-(6-methyl-pyridin-3-yl)-[1,2,4]triazolo[1,5-a]pyridine-2-yl]-amine]
inhibition at 10 µM (LYN B; [2]): < 40%
inhibition at 10 µM (LYN B; [3]): 20%
No. of kinases with <40% inhibition (panel of 15 kinases): 14/15

CCn1ncc2c1CCC(Nc1nc3c(-c4cncc(OC)c4)cccn3n1)C2 (stereo not drawn) [Example 70, (1-Ethyl-4,5,6,7-tetrahydro-1H-indazol-5-yl)-[8-(5-methoxy-pyridin-3-yl)-[1,2,4]triazolo[1,5-a]pyridine-2-yl]-amine]
inhibition at 10 µM (LYN B; [2]): < 40%
inhibition at 10 µM (LYN B; [3]): 22%
No. of kinases with <40% inhibition (panel of 15 kinases): 11/15
